Data published in patent US4882349A, “Pyrrolacetic amides having antiinflammatory activity” (priority 1982, dated 1989).

What was measured:
[1] = tested on: carrageenin-induced oedema; test: carrageenin-induced oedema test (anti-inflammatory activity); format: in vivo, albino male Wistar rats
[2] = tested on: phenyl-p-quinone-induced writhing (abdominal contractions); test: phenylquinone-induced writhing test (analgesic activity), compound given 30 min before phenyl-p-quinone; format: in vivo, male Wistar rats
In short: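 Male Wistar rats (110±5 g), fasted 14 h, received test compounds orally or parenterally in 0.5% CMC/saline vehicle 30 min before 2 ml of 0.36% phenyl-p-quinone in 5% ethanol.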

[3] = tested on: mucus secreted by the respiratory airway; test: antisecretory activity, respiratory mucus secretion; format: in vivo, albino male New Zealand rabbits; conditions: vs control group
In short: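 Male New Zealand rabbits, groups of four, urethane-anaesthetised (1.1 g/kg i.p.) with tracheal Y cannula breathing 100%-humidity air at 39° C. Mucus collected and measured 3 and 6 h post-dose; change expressed as percent difference from vehicle controls.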

[4] = tested on: cough provoked by mechanical stimulation of the tracheal bifurcation mucosa; test: antitussive activity, mechanically provoked coughing; format: in vivo, albino Guinea-pigs; conditions: 1 h after administration
In short: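 Albino guinea-pigs (300 g) with a tracheal Y cannula; coughing provoked by mechanically stimulating the tracheal bifurcation mucosa with a boar's hair.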

[5] = 25 mg/Kg, Table IV (route not given), 2 h
[6] = 25 mg/Kg, Table IV (route not given), 4 h
[7] = 25 mg/Kg, Table IV (route not given), 6 h
[8] = 25 mg/Kg, Table IV (route not given), 24 h
[9] = 25 mg/Kg, Table IV (route not given), 48 h
[10] = 25 mg/Kg, Table IV (route not given), 72 h
[11] = 50 mg/Kg, Table IV (route not given), 2 h
[12] = 50 mg/Kg, Table IV (route not given), 4 h
[13] = 50 mg/Kg, Table IV (route not given), 6 h
[14] = 50 mg/Kg, Table IV (route not given), 24 h
[15] = 50 mg/Kg, Table IV (route not given), 48 h
[16] = 50 mg/Kg, Table IV (route not given), 72 h
[17] = 100 mg/Kg, Table IV (route not given), 2 h
[18] = 100 mg/Kg, Table IV (route not given), 4 h
[19] = 100 mg/Kg, Table IV (route not given), 6 h
[20] = 100 mg/Kg, Table IV (route not given), 24 h
[21] = 100 mg/Kg, Table IV (route not given), 48 h
[22] = 100 mg/Kg, Table IV (route not given), 72 h

SMILES: Cc1ccc(C(=O)c2ccc(CC(=O)N3CCOCC3)n2C)cc1 [Compound 3-a, 1-methyl-5-p-toluoylpyrrole-2-N-(4-morpholinyl) acetamide]
- oedema % inhibition ([1]; 25 mg/Kg per os, 2 h): 27.1%
- oedema % inhibition ([1]; 25 mg/Kg per os, 4 h): 29.0%
- oedema % inhibition ([1]; 25 mg/Kg per os, 6 h): 32.3%
- oedema % inhibition ([1]; 25 mg/Kg per os, 24 h): 7.1%
- oedema % inhibition ([1]; 25 mg/Kg per os, 48 h): 0.0%
- oedema % inhibition ([1]; 25 mg/Kg per os, 72 h): 0.0%
- oedema % inhibition [1, 5]: 28.9%
- oedema % inhibition [1, 6]: 32.7%
- oedema % inhibition [1, 7]: 34.0%
- oedema % inhibition [1, 8]: 10.1%
- oedema % inhibition [1, 9]: 0.0%
- oedema % inhibition [1, 10]: 0.0%
- oedema % inhibition ([1]; 50 mg/Kg per os, 2 h): 46.0%
- oedema % inhibition ([1]; 50 mg/Kg per os, 4 h): 49.1%
- oedema % inhibition ([1]; 50 mg/Kg per os, 6 h): 48.0%
- oedema % inhibition ([1]; 50 mg/Kg per os, 24 h): 13.4%
- oedema % inhibition ([1]; 50 mg/Kg per os, 48 h): 0.0%
- oedema % inhibition ([1]; 50 mg/Kg per os, 72 h): 0.0%
- oedema % inhibition [1, 11]: 50.7%
- oedema % inhibition [1, 12]: 48.9%
- oedema % inhibition [1, 13]: 42.0%
- oedema % inhibition [1, 14]: 11.2%
- oedema % inhibition [1, 15]: 0.0%
- oedema % inhibition [1, 16]: 0.0%
- oedema % inhibition ([1]; 100 mg/Kg per os, 2 h): 60.0%
- oedema % inhibition ([1]; 100 mg/Kg per os, 4 h): 55.2%
- oedema % inhibition ([1]; 100 mg/Kg per os, 6 h): 69.7%
- oedema % inhibition ([1]; 100 mg/Kg per os, 24 h): 18.1%
- oedema % inhibition ([1]; 100 mg/Kg per os, 48 h): 0.0%
- oedema % inhibition ([1]; 100 mg/Kg per os, 72 h): 0.0%
- oedema % inhibition [1, 17]: 69.8%
- oedema % inhibition [1, 18]: 69.0%
- oedema % inhibition [1, 19]: 63.0%
- oedema % inhibition [1, 20]: 13.1%
- oedema % inhibition [1, 21]: 0.0%
- oedema % inhibition [1, 22]: 0.0%
- % Protection ([2]; 5 mg/Kg i.p.): 18.0%
- % Protection ([2]; 5 mg/Kg per os): 16.0%
- % Protection ([2]; 10 mg/Kg i.p.): 48.0%
- % Protection ([2]; 10 mg/Kg per os): 39.0%
- % Protection ([2]; 20 mg/Kg i.p.): 76.0%
- % Protection ([2]; 20 mg/Kg per os): 65.0%
- % difference in mucus secretion ([3]; 50 mg/Kg i.p., 3 h): -10%
- % difference in mucus secretion ([3]; 50 mg/Kg i.p., 6 h): -7%
- % difference in mucus secretion ([3]; 50 mg/Kg per os, 3 h): -7%
- % difference in mucus secretion ([3]; 50 mg/Kg per os, 6 h): -8%
- % difference in mucus secretion ([3]; 75 mg/Kg i.p., 3 h): -20%
- % difference in mucus secretion ([3]; 75 mg/Kg i.p., 6 h): -18%
- % difference in mucus secretion ([3]; 75 mg/Kg per os, 3 h): -15%
- % difference in mucus secretion ([3]; 75 mg/Kg per os, 6 h): -10%
- % difference in mucus secretion ([3]; 100 mg/Kg i.p., 3 h): -38%
- % difference in mucus secretion ([3]; 100 mg/Kg i.p., 6 h): -29%
- % difference in mucus secretion ([3]; 100 mg/Kg per os, 3 h): -32%
- % difference in mucus secretion ([3]; 100 mg/Kg per os, 6 h): -25%
- % inhibition, cough amplitude ([4]; 50 mg/Kg i.p.): 20%
- % inhibition, cough frequency ([4]; 50 mg/Kg i.p.): 15%
- % inhibition, cough amplitude ([4]; 50 mg/Kg per os): 15%
- % inhibition, cough frequency ([4]; 50 mg/Kg per os): 16%
- % inhibition, cough amplitude ([4]; 75 mg/Kg i.p.): 30%
- % inhibition, cough frequency ([4]; 75 mg/Kg i.p.): 16%
- % inhibition, cough amplitude ([4]; 75 mg/Kg per os): 30%
- % inhibition, cough frequency ([4]; 75 mg/Kg per os): 18%
- % inhibition, cough amplitude ([4]; 100 mg/Kg i.p.): 40%
- % inhibition, cough frequency ([4]; 100 mg/Kg i.p.): 56%
- % inhibition, cough amplitude ([4]; 100 mg/Kg per os): 35%
- % inhibition, cough frequency ([4]; 100 mg/Kg per os): 45%

SMILES: Cc1ccc(C(=O)c2ccc(CC(=O)N3CCN(C)CC3)n2C)cc1 [Compound 3-b, 1-methyl-5-p-toluoylpyrrole-2-N-[(4-methyl)-1-piperazinyl] acetamide]
- oedema % inhibition ([1]; 25 mg/Kg per os, 2 h): 28.1%
- oedema % inhibition ([1]; 25 mg/Kg per os, 4 h): 33.4%
- oedema % inhibition ([1]; 25 mg/Kg per os, 6 h): 30.0%
- oedema % inhibition ([1]; 25 mg/Kg per os, 24 h): 10.2%
- oedema % inhibition ([1]; 25 mg/Kg per os, 48 h): 0.0%
- oedema % inhibition ([1]; 25 mg/Kg per os, 72 h): 0.0%
- oedema % inhibition [1, 5]: 33.2%
- oedema % inhibition [1, 6]: 36.0%
- oedema % inhibition [1, 7]: 30.0%
- oedema % inhibition [1, 8]: 10.0%
- oedema % inhibition [1, 9]: 0.0%
- oedema % inhibition [1, 10]: 0.0%
- oedema % inhibition ([1]; 50 mg/Kg per os, 2 h): 49.1%
- oedema % inhibition ([1]; 50 mg/Kg per os, 4 h): 48.0%
- oedema % inhibition ([1]; 50 mg/Kg per os, 6 h): 49.7%
- oedema % inhibition ([1]; 50 mg/Kg per os, 24 h): 15.2%
- oedema % inhibition ([1]; 50 mg/Kg per os, 48 h): 0.0%
- oedema % inhibition ([1]; 50 mg/Kg per os, 72 h): 0.0%
- oedema % inhibition [1, 11]: 52.3%
- oedema % inhibition [1, 12]: 55.6%
- oedema % inhibition [1, 13]: 58.9%
- oedema % inhibition [1, 14]: 11.2%
- oedema % inhibition [1, 15]: 0.0%
- oedema % inhibition [1, 16]: 0.0%
- oedema % inhibition ([1]; 100 mg/Kg per os, 2 h): 69.7%
- oedema % inhibition ([1]; 100 mg/Kg per os, 4 h): 68.0%
- oedema % inhibition ([1]; 100 mg/Kg per os, 6 h): 69.0%
- oedema % inhibition ([1]; 100 mg/Kg per os, 24 h): 35.0%
- oedema % inhibition ([1]; 100 mg/Kg per os, 48 h): 8.9%
- oedema % inhibition ([1]; 100 mg/Kg per os, 72 h): 0.0%
- oedema % inhibition [1, 17]: 73.4%
- oedema % inhibition [1, 18]: 77.1%
- oedema % inhibition [1, 19]: 72.9%
- oedema % inhibition [1, 20]: 25.6%
- oedema % inhibition [1, 21]: 1.4%
- oedema % inhibition [1, 22]: 0.0%
- % Protection ([2]; 5 mg/Kg i.p.): 28.0%
- % Protection ([2]; 5 mg/Kg per os): 20.0%
- % Protection ([2]; 10 mg/Kg i.p.): 50.0%
- % Protection ([2]; 10 mg/Kg per os): 52.0%
- % Protection ([2]; 20 mg/Kg i.p.): 80.3%
- % Protection ([2]; 20 mg/Kg per os): 78.0%
- % difference in mucus secretion ([3]; 50 mg/Kg i.p., 3 h): -12%
- % difference in mucus secretion ([3]; 50 mg/Kg i.p., 6 h): -10%
- % difference in mucus secretion ([3]; 50 mg/Kg per os, 3 h): -9%
- % difference in mucus secretion ([3]; 50 mg/Kg per os, 6 h): -5%
- % difference in mucus secretion ([3]; 75 mg/Kg i.p., 3 h): -25%
- % difference in mucus secretion ([3]; 75 mg/Kg i.p., 6 h): -22%
- % difference in mucus secretion ([3]; 75 mg/Kg per os, 3 h): -18%
- % difference in mucus secretion ([3]; 75 mg/Kg per os, 6 h): -10%
- % difference in mucus secretion ([3]; 100 mg/Kg i.p., 3 h): -40%
- % difference in mucus secretion ([3]; 100 mg/Kg i.p., 6 h): -36%
- % difference in mucus secretion ([3]; 100 mg/Kg per os, 3 h): -36%
- % difference in mucus secretion ([3]; 100 mg/Kg per os, 6 h): -30%
- % inhibition, cough amplitude ([4]; 50 mg/Kg i.p.): 20%
- % inhibition, cough frequency ([4]; 50 mg/Kg i.p.): 28%
- % inhibition, cough amplitude ([4]; 50 mg/Kg per os): 18%
- % inhibition, cough frequency ([4]; 50 mg/Kg per os): 29%
- % inhibition, cough amplitude ([4]; 75 mg/Kg i.p.): 30%
- % inhibition, cough frequency ([4]; 75 mg/Kg i.p.): 20%
- % inhibition, cough amplitude ([4]; 75 mg/Kg per os): 30%
- % inhibition, cough frequency ([4]; 75 mg/Kg per os): 18%
- % inhibition, cough amplitude ([4]; 100 mg/Kg i.p.): 52%
- % inhibition, cough frequency ([4]; 100 mg/Kg i.p.): 40%
- % inhibition, cough amplitude ([4]; 100 mg/Kg per os): 45%
- % inhibition, cough frequency ([4]; 100 mg/Kg per os): 39%
